Data on 8 compounds can be found in US10358456B2, “Platinum(II) complexes with selone ligands and method of use” (KING FAHD UNIVERSITY OF PETROLEUM AND MINERALS, priority 2017, dated 2019).

Assay [1] concerns MCF7 (breast cancer cells). The experiment in a line: MTT assay for anticancer activity (in vitro cytotoxicity), MCF7. Format: cell-based, human. Particulars: for IC50: MTT, incubated 24 h with compound, read-out: IC50 ± SEM, MCF7 (concentration causing 50% reduction in cell viability). As for the experimental part: (§1) Cell Cultures: Human Cervical cancer HeLa and Brest cancer cell lines MCF-7 were grown in Dulbecco's modified Eagle's medium (DMEM) supplemented with 10% Fetal Bovine Serum (FBS), and 1% penicillin (10,000 units), streptomycin (10 mg), in 74 cm2 flask and incubated until 80% confluences obtained in humidified environment of, 5% CO2, 95% air, 37° C.
(§2) Complexes 1-7 and cisplatin (positive control) at 0.195 μM, 0.39 μM, 0.781 μM, 1.56 μM, 3.125 μM, 6.25 μM, 12.5 μM, 25 μM, and 50 μM concentrations were prepared in DMEM. Cancer cells were seeded and maintained in quadruplicate in a 96-well tissue culture plate at 5×10^4 cells per well in 200 μl of same medium. The cancer cells were incubated 24 hours before the treatment. All compounds were dissolved in 50% DMSO. Therefore, DMSO was used as a negative control. The final DMSO concentration, in each well, was less than 0.1%. The cancer cells were treated with the synthesized compounds 1-8 along with the cisplatin and the resultant cultures were incubated for 24 h. The medium of wells was discarded and 100 μL DMEM containing MTT (3-(4,5-dimethylthiazol-2-yl)-2,5-diphenyltetrazolium bromide) (5 mg/mL) was added to the wells and incubated in a CO2 incubator at 37° C. in the dark for 4 hrs. After incubation, a purple colored formazan (artificial chromogenic dye, a product of the reduction of water insoluble tetrazolium salts e.g., MTT by dehydrogenases and reductases) in the cells is produced and appeared as dark crystals in the bottom of the wells. The medium of culture was discarded from each well carefully to avoid disruption of the monolayer. 100 μL of isopropanol was added in each well. The solution was thoroughly mixed in the wells to dissolve the formazan crystals which ultimately results into a purple solution. The absorbance of the 96-well plate was measured at 570 nm with Mithras2LB943 against reagent blank. All data presented are mean±standard deviation.
(§3) To examine the possible anticancer effect of cisplatin and the prepared complexes, two human tumor cell lines, HeLa (cervical cancer cells) and MCF7 (breast cancer cells) were used. The results of in vitro cytotoxic activity are expressed as IC50 (concentration causing 50% reduction in cell viability) and are presented in Table 5.
A general note: Tetrazolium dyes change colour on reduction, which living cells bring about.

For assay [2], the system named is HeLa (cervical cancer cells). The assay can be described thus: MTT assay for anticancer activity (in vitro cytotoxicity), HeLa. Format: cell-based, human. The settings on record: for IC50: MTT, incubated 24 h with compound, read-out: IC50 ± SEM, HeLa (concentration causing 50% reduction in cell viability). As for the experimental part: as §1, §2, §3

Regarding `[Cl][Pt]([Cl])(=[Se]=C1NCCN1)=[Se]=C1NCCN1` [(2), Pt(ImSe)2Cl2], in assay [1] (in words), the “activity against MCF7 cells, compared among the complexes and with cisplatin” value was “most active”.
As for `NC(N)=[Se][Pt]([Cl])([Cl])[Se]=C(N)N` [(1), Pt(SeU)2Cl2], the IC50 turned out to be 19.78 ± 0.13 µM in assay [2] and 11.11 ± 0.05 µM in assay [1].
For `[Cl][Pt]([Cl])([Se]=C1NCCCCN1)[Se]=C1NCCCCN1` [(7), Pt(DiapSe)2Cl2] the same measures were 11.5 ± 0.22 µM and 16.68 ± 0.02 µM.
Regarding `[Cl][Pt]([Cl])([Se]=C1NCCCN1)[Se]=C1NCCCN1` [(6), Pt(DiazSe)2Cl2], the IC50 came out at 11.3 ± 0.2 µM in assay [2] and 12.27 ± 0.01 µM in assay [1]. Also, in assay [2] (in words), the “antiproliferative potency in HeLa cells, compared among the complexes and with cisplatin” value is given as “strongest antiproliferative potency”.
Turning to `CCCN1CCNC1=[Se][Pt]([Cl])([Cl])[Se]=C1NCCN1CCC` [(4), Pt(PrImSe)2Cl2], the IC50 came out at 12.9 ± 0.16 µM in assay [2] and 18.64 ± 0.03 µM in assay [1].
As for `CCN1CCNC1=[Se][Pt]([Cl])([Cl])[Se]=C1NCCN1CC` [(3), Pt(EtImSe)2Cl2], the IC50 in assay [2] was determined as 17.73 ± 0.14 µM; in assay [1], 8.59 ± 0.07 µM.
For `CC(C)N1CCNC1=[Se][Pt]([Cl])([Cl])[Se]=C1NCCN1C(C)C` [(5), Pt(i-PrImSe)2Cl2] the same measures were 14 ± 0.16 µM and 8.3 ± 0.06 µM.
For `N.N.[Cl][Pt][Cl]` [Cisplatin, cisplatin, reference compound] the same measures were 21.4 ± 0.73 µM and 8.98 ± 0.07 µM.
